Results published in patent US20240398775A1, “PHARMACEUTICAL COMPOSITION FOR USE IN TREATING COGNITIVE DECLINE OR FOR USE IN TREATING OVERWEIGHT OR OBESITY” (University of the Ryukyus, priority 2021, published 2024).

Key:
[1] = test system: Ca2+ permeable AMPAR (CP-AMPAR); assay: Ca2+ imaging (Fluo-3) of hippocampal brain slices, AMPA + CTZ application (CP-AMPA reaction); assay type: cell-based, mouse
[2] = test system: MAP2, GluA1, GluA2, DCX; assay: Immunohistochemical analysis (MAP2, GluA1, GluA2, DCX) of hippocampus; assay type: in vivo, mouse
Text: Mouse brains were perfusion-fixed with 4% paraformaldehyde, embedded in paraffin, and cut into 4 micrometer thick sections to be used for immunohistochemical analysis of monoclonal antibodies against DCX (E-6 monoclonal, 1:50, Santa Cruz Biotechnology Inc, Dallas, USA), MAP2ab (AP-20 monoclonal, 1:100, SIGMA-ALDRICH, St. Louis, USA), GluA1 ([…] polyclonal, 1:100, EMD Millipore Corp., Burlington, USA), and GluA2 (AB 1768-1 polyclonal, 1:5, EMD Millipore Corp., Burlington, USA).
The immunostained region in each of the expression regions of MAP2, GluA1, and GluA2 was acquired using a ZVI format AxioVision (Carl Zeiss, Germany) microscope (objective lens 20×). Generation of data image processing with image segmentation was performed using machine learning with ZEN Intelliesis software. 1000 or more cells were examined in each group. One-way variance analysis was used for testing variance among the three groups excluding data of 3SD or higher. Then, the following number of samples was used.

[3] = test system: hippocampus and body weight of a person; assay: Perampanel in an obese person: brain MRI, body weight, BMI; assay type: in vivo, human; conditions: for BMI: 26 w after surgery / 26 weeks of PER administration, before: 37.7
Description: The effect of an AMPA receptor antagonist on the hippocampus and body weight of a person with a BMI value of 38 was investigated. A person had quadriplegia and respiratory disorders due to a large foramen magnum tumor. After the tumor extraction, anti-epileptic treatment was performed. As an anti-epileptic treatment, 2 mg/day (thereafter, the dose was changed to 4 mg/day) of perampanel was orally administered. The transition of the body weight and the Fugl-meyer assessment score of the lower limb was observed. In addition, the size of the hippocampus was evaluated from MRI of the brain of the at 26 weeks after surgery.

[4] = test system: Thy-1+-eYFP neuronal cells; assay: Quantification of Thy1-eYFP neurons (CLARITY); assay type: in vivo, mouse; conditions: HFD mice treated with PER, p<0.001, n=4
Text: Coronal sections of mouse brains from Bregma-0.94 mm to Bregma-4.04 mm (5 mm wide, including the entire hippocampus from dorsal to ventral, medial to lateral) were fixed with 4% paraformaldehyde for 2 days, and then stained with the Golgi Cox staining system (FD Rapid GolgiStain™ Kit, MD 21041, USA). The impregnated tissues were cut into 100 μm sections and counterstained with crystal violet, and the total number of 15 μm spines on the apical dendrites of CA1 and DG and the percentage of morphologic spines (thin, stubby, mushroom) were examined using an Axio Observer Z1 (Carl Zeiss, Germany). Another set of paraformaldehyde-fixed 5 mm wide coronal sections of the brain, including the entire hippocampus, were processed using the passive CLARITY technique (PACT) (62) and examined through Lightsheet Z.1 (Carl Zeiss, Germany) using a 10× clear objective lens, and 3D images of Thy1-YFPH transgenic mice (the Jackson Laboratory, stock number: 003709, strain name: B6. Cg-Tg. (Thy1-YFP) 16Jrs/J) (63, 64), HFD-fed mice, and whole hippocampus of the HFD-fed mice with PER treatment. were acquired respectively. Maximum intensity projection images were acquired along the Z dimension, time dimension, and channel dimension to create an output image with the pixel containing the maximum value for all images in the stack at a particular pixel position. […]

[5] = HFD-fed mice with oral PER 5 mg/kg/day, AMPA 100 μM + CTZ 100 μM, N = 5

N#Cc1ccccc1-c1cc(-c2ccccn2)cn(-c2ccccc2)c1=O [PER, 3-(2-cyanophenyl)-5-(2-pyridyl)-1-phenyl-1,2-dihydropyridine-2-one]
increase in [Ca2+]i via pathological AMPARs [1]: completely disappeared
inhibitory effect on CP-AMPAR in EC, CA1, CA2, CA3 and DG [1]: significant inhibitory effect
CP-AMPA reaction CA1 (maximum value of NF525) [1, 5]: 1.00 ± 0.01
CP-AMPA reaction CA2 (maximum value of NF525) [1, 5]: 1.00 ± 0.02
CP-AMPA reaction CA3 (maximum value of NF525) [1, 5]: 1.00 ± 0.01
CP-AMPA reaction DG (maximum value of NF525) [1, 5]: 1.02 ± 0.01
CP-AMPA reaction EC (maximum value of NF525) [1, 5]: 1.05 ± 0.05
elevation of [Ca2+]i via AMPAR ([1]; acute slices from HFD-fed mice, 100 μM PER applied): completely disappeared
transmission via AMPAR ([1]; hippocampal slices from mice fed HFD and PER 5 mg/kg/day orally by hydrogel): normalize transmission via AMPAR
integrity of dendritic arbors in CA1 (anti-MAP2 antibody staining) ([2]; HFD mice with PER): completely restored
GluA2/GluA1 ratio (immunostaining) ([2]; HFD mice with PER treatment): increased
immunostaining reaction of GluA1 in CA1 ([2]; HFD mice with PER treatment): decreased
double cortin positive cells ([2]; HFD mice with PER, DG): increase
GluA1 expression in CA1 (immunoreactive region) ([2]; ob/ob mice with PER): restored
ratio of GluA2/GluA1 (immunoreactive region) ([2]; ob/ob mice with PER): restored
integrity of the dendritic arbors (MAP2 staining) ([2]; ob/ob mice, PER for 1 week or 12 weeks): significantly more restored by 12 week administration than by 1 week administration
maturation of the protrusions of DCX-positive cells ([2]; ob/ob mice, PER for 12 weeks): progressed
body weight of the person ([3]; obese person after administration): decreased smoothly
BMI ([3]; obese person): 31
BMI ([3]; obese person, listed as AMPA receptor antagonist): 33.4
gray matter/TIV ([3]; obese person, 26 w after surgery, oral perampanel 2 then 4 mg/day): 0.50 L/L
size of the hippocampus (MRI) ([3]; obese person, 26 weeks after surgery, PER administration): clearly increased
number of Thy-1+-eYFP neuronal cells in CA3 [4]: significantly restored
